Series [1] deals with subjects with primary focal hyperhidrosis. Briefly: Dry Mouth Questions (Dry Mouth Severity/Incidence Questionnaire), crossover clinical study. Particulars: PP, n 18. The format is in vivo, human. From the text:
(§1) The clinical study was a randomized, double blind, placebo-controlled, crossover study of approximately 18 subjects. Following qualification, subjects were randomized to one of 6 groups/sequences during which they received each of the three study treatments in sequential treatment periods. Each 21-day double-blind study treatment period was preceded by an at least 7-day washout period. Subsequent study treatment assignments were via the sequential three-way crossover design prescribed in that group. After completing the final study treatment period or early study treatment discontinuation, all subjects completed an end of study visit (approximately 14 days after the last study treatment administration. FIG. 5 illustrates a scheme of the clinical study design.
The active control of oxybutynin 7.5 mg is the comparator for THVD-102 [7.5/7.5] for the anti-muscarinic induced dry mouth symptom incidence and severity.
Subjects were randomized to 1 of 6 groups/sequences of study treatment administration. Each sequence included sequential crossover assignment to a 21-day treatment period of: • oxybutynin 7.5 mg BID alone by mouth; • THVD-102 [7.5/7.5] (oxybutynin 7.5 mg in combination with pilocarpine 7.5 mg) BID by mouth; and • placebo BID by mouth.
Dry Mouth Questions (Dry Mouth Severity/Incidence Questionnaire)
At the end of the end of each treatment period, investigational site staff questioned subjects regarding the incidence of dry mouth. This assessment occurred after the subject had completed the DMVAS and DTVAS and included questions relating to the incidence and severity of dry mouth symptoms and remedial actions taken. The investigator was instructed to query subjects in a non-judgmental, non-leading manner using the following script (© 2012, Thomas Tremblay and Robin Allgren) to elicit the incidence of dry mouth: • Have you had any dry mouth since starting (the most recent) study treatment? (at completion of Treatment Periods 1, 2, and 3)
Efficacy and safety analyses were conducted on study treatment (THVD-102 [7.5/7.5], oxybutynin or placebo). Continuous data were summarized by using descriptive statistics (mean, SD, median, min, max) and categorical data were summarized in frequency tables. Using Day 1 of the first and each subsequent Treatment Period as baselines for measuring treatment effect, a Wilcoxon signed-rank test were performed. […] There was a statistically significant effect in each of three measures of efficacy: • 1) Hyperhidrosis Disease Severity Scale (p=0.03-0.05) • THVD-102 [7.5/7.5]=1.06±1.11; Oxybutynin=1.33±1.03; placebo=0.5±0.62 1 point drop=50% reduction in sweating; 2 points=80% reduction • 2) Hyperhidrosis Visual Analog Scale (p=0.01) • 3) Hyperhidrosis Visual Quantification Scale (p=0.005-0.07)

Series [2] shares this test system. Put plainly: Hyperhidrosis Disease Severity Scale (HDSS), crossover clinical study. The format is in vivo, human. Particulars: BID by mouth, 21-day treatment period; 1 point drop=50% reduction in sweating, 2 points=80% reduction.
Source text: as §1
Subjects were randomized to 1 of 6 groups/sequences of study treatment administration. […]
(§2) Efficacy and safety analyses were conducted on study treatment (THVD-102 [7.5/7.5], oxybutynin or placebo). […] There was a statistically significant effect in each of three measures of efficacy: • 1) Hyperhidrosis Disease Severity Scale (p=0.03-0.05) • THVD-102 [7.5/7.5]=1.06±1.11; Oxybutynin=1.33±1.03; placebo=0.5±0.62 1 point drop=50% reduction in sweating; 2 points=80% reduction • 2) Hyperhidrosis Visual Analog Scale (p=0.01) • 3) Hyperhidrosis Visual Quantification Scale (p=0.005-0.07)

The test system is the same in series [3]. Put plainly: Dry Mouth Visual Analog Scale (DMVAS), crossover clinical study. The format is in vivo, human. Particulars: 100 mm scale, 100 = worst; PP; n 18.
Source text: The clinical study was a randomized, double blind, placebo-controlled, crossover study of approximately 18 subjects. Following qualification, subjects were randomized to one of 6 groups/sequences during which they received each of the three study treatments in sequential treatment periods. Each 21-day double-blind study treatment period was preceded by an at least 7-day washout period. Subsequent study treatment assignments were via the sequential three-way crossover design prescribed in that group. […]
The DMVAS will be used to quantify the severity of dry mouth experienced by subjects during this clinical trial. […] The score was determined by measuring the distance from the left anchor to where the line that the subject drew bisected the (100 mm) scale. The distance was measured and recorded in millimeters (mm). […]
as §2

For series [4] the following is noted: Jacobs 1996; Cheshire and Fealey 2008; Salagen product insert; cited from earlier work.

For `CCN(CC)CC#CCOC(=O)C(O)(c1ccccc1)C1CCCCC1` (stereo not shown) [Oxybutynin, 4-Diethylaminobut-2-ynyl 2-cyclohexyl-2-hydroxy-2-phenylethanoate], in series [1], the “Moderate/Severe dry mouth, number of subjects” value is on record as 13; the “Moderate/Severe dry mouth, percent of subjects” value was 72%; the “None/Mild dry mouth, number of subjects” value is reported as 5; the “None/Mild dry mouth, percent of subjects” value came to 27%. In addition, the “Hyperhidrosis Disease Severity Scale” value in series [2] was determined as 1.33±1.03. In addition, the “Dry mouth Visual Analog Scale, Change D0-D21” value in series [3] is reported as 43.9 ± 27.9 mm.
For `CC[C@@H]1C(=O)OC[C@@H]1Cc1cncn1C` [pilocarpine, (3S,4R)-3-Ethyl-4-((1-methyl-1H-imidazol-5-yl)methyl)dihydrofuran-2(3H)-one], in series [4], the effect on sweating entry is given as “known to cause an increase in sweating”.

The values are drawn from patent publication US11779569B2, “Methods and compositions for treating hyperhidrosis” (THERAVIDA, INC., priority 2016, dated 2023).
